From US12384797B2, “Thioeno[3,2-b] pyridin-7-amine compounds for treating familial dysautonomia” (PTC THERAPEUTICS, INC., priority 2019, dated 2025)

Tested on: Elongator complex protein 1 (ELP1, also referred to as IKBKAP)
Assay: IKBKAP-HTRF assay (IKBKAP protein in lysates of FD patient-derived fibroblasts)
Format: cell-based, human
Conditions: 48 hours incubation, 7-point concentration curve
Experimental: The assay is used for the quantitative determination of Elongator complex protein 1 (ELP1, also referred to as IKBKAP) concentration in cell lysates using the HTRF® (Homogeneous Time-Resolved Fluorescence) technology. IKBKAP is detected in a sandwich HTRF assay by use of an anti-IKAP antibody labeled with a donor and an anti-IKAP antibody labeled with an acceptor.
Cells were thawed and incubated in DMEM-10% FBS for 72 hours. Cells were trypsinized, counted, and re-suspended to a concentration of 50,000 cells/mL in DMEM-10% FBS. A 199 μL aliquot of the cell suspensions were plated at 10,000 cells per well in a 96 well microtiter plate and incubated for 3 to 5 hours. […] Test compounds were serially diluted 3.16-fold in 100% DMSO to generate a 7-point concentration curve. A 1 μL aliquot of 200× compound solution was transferred to cell-containing wells, and cells were incubated for 48 hours in a cell culture incubator (37° C., 5% CO2, 100% relative humidity). Triplicate samples were set up for each compound concentration. After 48 hours, the supernatant was removed from the cells and 50 μL of the 1×LB4 lysis buffer, containing protease inhibitors, was added to the cells and incubated with shaking at room temperature for 1 hour. A 36 μL aliquot of this lysate was subsequently transferred to the 384-well plate containing 4 μL of the antibody solution (1:50 dilution of anti IKAP d2 and anti-IKAP K(9+8) in detection buffer). The 384-well plate was then centrifuged for 1 minute to bring the solutions to the bottom of the plate and incubated overnight at 4° C. Fluorescence for each well of the plate at 665 nm and 620 nm was measured was on the EnVision plate reader (Perkin Elmer). The ΔF for each sample is calculated by:
[formula] wherein Signal is the normalized fluorescence for each sample well and Blank is the average normalized average fluorescence for the Blank control wells.
The maximum fold increase (MFI) in IKBKAP protein abundance for compounds of Formula (I) or a form thereof relative to the vehicle control are provided in Table 1. MFI was calculated by dividing the ΔF value for each sample well by the sample ΔF for the vehicle control wells.
The EC2x for IKBKAP protein expression obtained from the 7-point concentration curve generated for each test compound according to the protocol in Biological Example 1 are also provided in Table 1. The term “EC2x for IKBKAP protein expression” is defined as the concentration of test compound that is effective in producing two times the amount of IKBKAP protein in a FD patient cell compared to the amount produced from the DMSO vehicle control.

| SMILES | EC2x for IKBKAP protein expression (concentration producing two times the amount of IKBKAP protein vs DMSO vehicle control) | MFI (maximum fold increase in IKBKAP protein abundance relative to the vehicle control) |
| --- | --- | --- |
| N[C@H](CF)Cc1sc2c(NCc3nccs3)cc(Cl)nc2c1Br [Compound 66, 2-[(2S)-2-amino-3-fluoropropyl]-3-bromo-5-chloro-N-[(1,3-thiazol-2-yl)methyl]thieno[3,2-b]pyridin-7-amine] | *** (between >0.02 μM and ≤0.5 μM is indicated by three stars (***)) | * (An MFI≤1.9 is indicated by one star (*)) |
| Cc1c(C[C@@H](N)CC(C)C)sc2c(NCc3cccs3)cc(Cl)nc12 [Compound 61, 2-[(2S)-2-amino-4-methylpentyl]-5-chloro-3-methyl-N-[(thiophen-2-yl)methyl]thieno[3,2-b]pyridin-7-amine] | ***** (≤0.005 μM is indicated by five stars (*****)) | ***** (>4.9 is indicated by five stars (*****)) |
| Cc1c(C[C@H](C)N)sc2c(NCc3ccco3)ccnc12 [Compound 34, 2-[(2S)-2-aminopropyl]-N-[(furan-2-yl)methyl]-3-methylthieno[3,2-b]pyridin-7-amine] | **** (between >0.005 μM and ≤0.02 μM is indicated by four stars (****)) | ***** (>4.9 is indicated by five stars (*****)) |
| C[C@H](N)Cc1sc2c(NCc3nccs3)cc(Cl)nc2c1C1CC1 [Compound 96, 2-[(2S)-2-aminopropyl]-5-chloro-3-cyclopropyl-N-[(1,3-thiazol-2-yl)methyl]thieno[3,2-b]pyridin-7-amine] | **** (between >0.005 μM and ≤0.02 μM is indicated by four stars (****)) | ***** (>4.9 is indicated by five stars (*****)) |
| CC[C@H](N)Cc1sc2c(NCc3cccs3)cc(Cl)nc2c1C [Compound 33, 2-[(2S)-2-aminobutyl]-5-chloro-3-methyl-N-[(thiophen-2-yl)methyl]thieno[3,2-b]pyridin-7-amine] | ***** (≤0.005 μM is indicated by five stars (*****)) | ***** (>4.9 is indicated by five stars (*****)) |
| C[C@H](N)C(=O)c1sc2c(NCc3cccs3)cc(Cl)nc2c1Br [Compound 156, (2S)-2-amino-1-(3-bromo-5-chloro-7-{[(thiophen-2-yl)methyl]amino}thieno[3,2-b]pyridin-2-yl)propan-1-one] | *** (between >0.02 μM and ≤0.5 μM is indicated by three stars (***)) | *** (between >2.9 and ≤3.9 is indicated by three stars (***)) |
| C[C@H](N)Cc1sc2c(NCc3cccs3)cc(Cl)nc2c1C#N [Compound 110, 2-[(2S)-2-aminopropyl]-5-chloro-7-{[(thiophen-2-yl)methyl]amino}thieno[3,2-b]pyridine-3-carbonitrile] | ***** (≤0.005 μM is indicated by five stars (*****)) | **** (between >3.9 and ≤4.9 is indicated by four stars (****)) |
| Cc1c(C[C@@H](N)C(=O)N(C)C)sc2c(NCc3ccco3)cc(Cl)nc12 [Compound 116, 3-(5-chloro-7-{[(furan-2-yl)methyl]amino}-3-methylthieno[3,2-b]pyridin-2-yl)-N,N-dimethyl-D-alaninamide] | **** (between >0.005 μM and ≤0.02 μM is indicated by four stars (****)) | ***** (>4.9 is indicated by five stars (*****)) |
| OCc1cc2nc(Cl)cc(NCc3ccco3)c2s1 [Compound 5, (5-chloro-7-{[(furan-2-yl)methyl]amino}thieno[3,2-b]pyridin-2-yl)methanol] | * (An EC2x>1 μM is indicated by one star (*)) | * (An MFI≤1.9 is indicated by one star (*)) |
| Cc1c([C@H](C)[C@H](C)N)sc2c(NCc3ccco3)cc(Cl)nc12 [Compound 150, 2-[(2R,3S)-3-aminobutan-2-yl]-5-chloro-N-[(furan-2-yl)methyl]-3-methylthieno[3,2-b]pyridin-7-amine] | ***** (≤0.005 μM is indicated by five stars (*****)) | ***** (>4.9 is indicated by five stars (*****)) |
| C[C@H](F)[C@H](N)Cc1sc2c(NCc3nccs3)cc(Cl)nc2c1Br [Compound 125, 2-[(2R,3S)-2-amino-3-fluorobutyl]-3-bromo-5-chloro-N-[(1,3-thiazol-2-yl)methyl]thieno[3,2-b]pyridin-7-amine] | ***** (≤0.005 μM is indicated by five stars (*****)) | ***** (>4.9 is indicated by five stars (*****)) |
| CSC[C@H](N)Cc1sc2c(NCc3ccco3)cc(Cl)nc2c1Cl [Compound 114, 2-[(2R)-2-amino-3-(methylsulfanyl)propyl]-3,5-dichloro-N-[(furan-2-yl)methyl]thieno[3,2-b]pyridin-7-amine] | ***** (≤0.005 μM is indicated by five stars (*****)) | ***** (>4.9 is indicated by five stars (*****)) |
| N#Cc1csc2c(NCc3ccco3)cc(Cl)nc12 [Compound 14, 5-chloro-7-{[(furan-2-yl)methyl]amino}thieno[3,2-b]pyridine-3-carbonitrile] | *** (between >0.02 μM and ≤0.5 μM is indicated by three stars (***)) | ***** (>4.9 is indicated by five stars (*****)) |
| OC[C@@H](Cc1sc2c(NCc3nccs3)cc(Cl)nc2c1Br)NC(F)(F)F [Compound 65, (2R)-3-(3-bromo-5-chloro-7-{[(1,3-thiazol-2-yl)methyl]amino}thieno[3,2-b]pyridin-2-yl)-2-[(trifluoromethyl)amino]propan-1-ol] | *** (between >0.02 μM and ≤0.5 μM is indicated by three stars (***)) | ***** (>4.9 is indicated by five stars (*****)) |
| CC(C)C[C@H](N)Cc1sc2c(NCc3nccs3)cc(Cl)nc2c1Br [Compound 62, 2-[(2S)-2-amino-4-methylpentyl]-3-bromo-5-chloro-N-[(1,3-thiazol-2-yl)methyl]thieno[3,2-b]pyridin-7-amine] | ***** (≤0.005 μM is indicated by five stars (*****)) | ***** (>4.9 is indicated by five stars (*****)) |
| CNCc1cc2nc(Cl)cc(NCc3ccco3)c2s1 [Compound 25, 5-chloro-N-[(furan-2-yl)methyl]-2-[(methylamino)methyl]thieno[3,2-b]pyridin-7-amine] | *** (between >0.02 μM and ≤0.5 μM is indicated by three stars (***)) | *** (between >2.9 and ≤3.9 is indicated by three stars (***)) |
